Test results taken from publication PMC11808583 (Current Neuropharmacology, 2024).

Legend:
AChE = AChE (Electrophorus electricus, UniProt O42275); experiment: Ellman's assay, AChE (type VI-S) inhibition; format: biochemical
BChE = BChE (Equus caballus, UniProt P81908); experiment: Ellman's assay, BChE inhibition; format: biochemical
Sequence of BChE (P81908 whole entry): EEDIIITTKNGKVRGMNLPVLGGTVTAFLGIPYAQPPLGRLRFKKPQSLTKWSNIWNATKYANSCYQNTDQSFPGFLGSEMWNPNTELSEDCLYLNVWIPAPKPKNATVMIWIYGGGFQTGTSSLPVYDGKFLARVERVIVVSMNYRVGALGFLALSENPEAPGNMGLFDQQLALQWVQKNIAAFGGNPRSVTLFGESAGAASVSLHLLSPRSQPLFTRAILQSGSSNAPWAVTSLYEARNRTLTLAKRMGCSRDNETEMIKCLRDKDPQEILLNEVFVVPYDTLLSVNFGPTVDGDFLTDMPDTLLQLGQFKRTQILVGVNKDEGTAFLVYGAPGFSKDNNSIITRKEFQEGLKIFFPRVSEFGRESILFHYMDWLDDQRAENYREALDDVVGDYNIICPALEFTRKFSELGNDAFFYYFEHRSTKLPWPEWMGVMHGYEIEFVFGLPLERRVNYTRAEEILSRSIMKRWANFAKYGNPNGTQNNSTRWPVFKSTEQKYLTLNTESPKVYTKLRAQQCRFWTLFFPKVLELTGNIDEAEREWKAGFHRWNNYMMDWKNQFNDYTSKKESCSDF

Sequence of AChE (O42275 24-633): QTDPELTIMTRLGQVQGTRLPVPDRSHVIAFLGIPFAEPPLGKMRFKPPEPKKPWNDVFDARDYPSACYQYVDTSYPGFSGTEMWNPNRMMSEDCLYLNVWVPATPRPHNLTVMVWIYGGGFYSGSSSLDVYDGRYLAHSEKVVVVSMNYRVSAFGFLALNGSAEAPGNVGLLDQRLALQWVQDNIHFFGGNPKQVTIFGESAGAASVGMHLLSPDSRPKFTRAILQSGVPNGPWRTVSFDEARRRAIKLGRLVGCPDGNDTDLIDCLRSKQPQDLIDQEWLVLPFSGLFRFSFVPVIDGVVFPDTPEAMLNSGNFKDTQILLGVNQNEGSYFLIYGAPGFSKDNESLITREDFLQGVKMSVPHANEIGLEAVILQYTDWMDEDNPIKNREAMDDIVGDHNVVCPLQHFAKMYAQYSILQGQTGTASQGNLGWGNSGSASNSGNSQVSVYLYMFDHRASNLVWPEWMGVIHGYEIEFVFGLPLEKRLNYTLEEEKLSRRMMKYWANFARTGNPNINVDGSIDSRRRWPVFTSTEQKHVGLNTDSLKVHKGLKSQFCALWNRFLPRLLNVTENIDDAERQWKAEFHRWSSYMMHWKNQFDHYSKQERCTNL

In the case of C/C=C\c1ccc(O)c(OC)c1 [isoeugenol], the IC50 (AChE) is reported as 2.62 mM and the IC50 (BChE) is reported as 1.69 mM.
